From patent publication US9855268B2, “Triazolo[4,5-d]pyrimidine derivatives” (Merck Patent GmbH, priority 2013, dated 2018)

Columns and labels:
GCN2 [1] = target: T1, GCN2 (Homo sapiens, UniProt Q9P2K8); test: Cellular assay of GCN2 activity (phospho-eIF2alpha immunocytochemistry after tryptophanol); assay type: cell-based; parameters: endogenous in cells; host or cells: U2OS; settings: Human U2OS cells, 2 h compound, 600 μM tryptophanol 30 min
Experimental: Cellular Assay for the Determination of Compound Activities
Human U2OS cells (2000 cells/well) are seeded into 384-well plates and incubated for 20 hours.
The next day, the cells are treated with the test compounds and incubated for 2 hours. Then, tryptophanol, at a final concentration of 600 μM, is added to the cells and those are incubated for 30 minutes.
The analysis of cellular GCN2 activities is done by immunocytochemistry.
Briefly, cells are fixated on the well surfaces by formaldehyde and permeabilised with Triton X-100.
The analysis and quantification of phosphorylated GCN2 is done by scanning the plates in the Acumen Explorer system (TTPLabtech). The obtained data are normalised against the untreated control wells (DMSO only) and expressed as % effect values. The determination of IC50 values is done by using the Graph Pad Prism software.
Target sequence in this assay (Q9P2K8 whole entry): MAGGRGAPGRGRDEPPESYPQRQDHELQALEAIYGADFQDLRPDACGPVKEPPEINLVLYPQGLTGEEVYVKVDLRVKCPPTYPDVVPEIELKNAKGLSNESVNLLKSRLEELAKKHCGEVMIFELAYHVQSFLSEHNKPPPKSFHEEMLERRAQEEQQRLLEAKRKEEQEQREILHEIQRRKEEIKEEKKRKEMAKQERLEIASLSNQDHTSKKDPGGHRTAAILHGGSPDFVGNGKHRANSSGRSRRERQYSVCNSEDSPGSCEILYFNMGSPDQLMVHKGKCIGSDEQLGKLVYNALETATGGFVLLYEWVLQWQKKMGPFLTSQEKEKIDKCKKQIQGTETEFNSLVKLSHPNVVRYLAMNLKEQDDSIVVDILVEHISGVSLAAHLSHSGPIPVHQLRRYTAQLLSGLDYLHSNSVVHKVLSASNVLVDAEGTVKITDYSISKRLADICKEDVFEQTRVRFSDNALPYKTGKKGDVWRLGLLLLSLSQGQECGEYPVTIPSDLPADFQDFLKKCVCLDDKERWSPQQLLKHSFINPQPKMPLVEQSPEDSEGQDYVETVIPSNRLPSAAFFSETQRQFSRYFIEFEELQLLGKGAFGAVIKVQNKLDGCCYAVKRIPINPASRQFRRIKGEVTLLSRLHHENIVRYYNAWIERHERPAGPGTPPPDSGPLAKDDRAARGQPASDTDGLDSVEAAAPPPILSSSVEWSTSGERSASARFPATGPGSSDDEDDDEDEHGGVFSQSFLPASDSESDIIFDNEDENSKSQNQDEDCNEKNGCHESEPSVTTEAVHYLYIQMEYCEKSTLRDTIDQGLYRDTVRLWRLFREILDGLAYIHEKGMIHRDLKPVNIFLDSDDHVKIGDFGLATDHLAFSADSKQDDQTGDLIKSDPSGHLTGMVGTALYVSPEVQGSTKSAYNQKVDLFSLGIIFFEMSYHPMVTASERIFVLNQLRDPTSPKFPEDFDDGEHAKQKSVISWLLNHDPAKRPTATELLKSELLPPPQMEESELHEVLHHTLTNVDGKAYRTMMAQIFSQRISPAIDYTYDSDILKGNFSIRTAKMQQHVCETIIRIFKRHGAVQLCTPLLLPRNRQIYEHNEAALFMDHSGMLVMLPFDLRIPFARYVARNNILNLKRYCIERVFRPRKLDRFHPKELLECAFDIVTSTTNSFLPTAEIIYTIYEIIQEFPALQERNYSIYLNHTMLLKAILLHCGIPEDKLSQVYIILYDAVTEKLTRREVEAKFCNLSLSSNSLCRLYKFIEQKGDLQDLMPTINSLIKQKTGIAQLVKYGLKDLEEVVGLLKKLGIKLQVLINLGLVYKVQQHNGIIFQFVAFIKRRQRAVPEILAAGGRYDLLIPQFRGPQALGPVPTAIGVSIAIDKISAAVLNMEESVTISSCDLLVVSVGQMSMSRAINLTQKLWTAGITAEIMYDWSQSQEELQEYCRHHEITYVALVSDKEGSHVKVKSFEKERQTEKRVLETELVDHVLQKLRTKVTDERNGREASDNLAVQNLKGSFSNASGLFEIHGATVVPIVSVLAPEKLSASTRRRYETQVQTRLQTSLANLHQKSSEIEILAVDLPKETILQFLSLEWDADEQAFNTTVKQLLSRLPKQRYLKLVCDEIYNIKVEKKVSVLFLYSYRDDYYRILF

GSK3α(h) = GSK3α(h) (Homo sapiens, UniProt P49840); test: GSK3α radiometric kinase assay (33P-ATP, phospho GS2 peptide); assay type: biochemical; settings: read-out: IC50 GSK3α (enzyme assay)
Sequence of GSK3α(h) (P49840 whole entry): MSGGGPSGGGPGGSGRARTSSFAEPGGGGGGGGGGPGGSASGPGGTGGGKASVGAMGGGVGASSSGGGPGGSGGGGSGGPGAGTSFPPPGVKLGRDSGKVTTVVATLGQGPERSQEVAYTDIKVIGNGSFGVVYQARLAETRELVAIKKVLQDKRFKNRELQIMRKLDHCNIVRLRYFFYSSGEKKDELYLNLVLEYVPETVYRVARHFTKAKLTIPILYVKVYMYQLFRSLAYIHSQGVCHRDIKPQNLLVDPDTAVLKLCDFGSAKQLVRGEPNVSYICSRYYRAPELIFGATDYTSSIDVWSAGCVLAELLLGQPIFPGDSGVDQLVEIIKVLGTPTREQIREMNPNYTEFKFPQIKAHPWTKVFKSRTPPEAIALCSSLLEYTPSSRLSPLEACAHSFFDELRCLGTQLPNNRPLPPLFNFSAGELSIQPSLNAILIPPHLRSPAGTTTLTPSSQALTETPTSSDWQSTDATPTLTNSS
Experimental: GSK3α(h) is incubated with 8 mM MOPS pH 7,0, 0,2 mM EDTA, 20 μM
[…](p)EDEEE (phosphor GS2 peptide), 10 mM Mg-acetate and [gamma-33P-ATP](specific activity approx. 500 cpm/Pmol, concentration as required). The reaction is initiated by the addition of the MgATP. After incubation for 40 minutes at the room temperature, the Reaction is stopped by the addition of 3% phosphoric acid solution. 10 μL of reaction is then spotted onto a P30 filtermat and washed three times for 5 minutes in 50 mM phosphoric acid and once in methanol prior to drying and scintillation counting.

GCN2 [2] = target: T1, GCN2; test: GCN2 enzyme assay (TR-FRET Lanthascreen, GFP-eIF2alpha phosphorylation); assay type: biochemical; settings: 10 μM ATP, 80 nM GFP-eIF2a, 30 nM GCN2
Summary of the method: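 Phosphorylation of GFP-eIF2alpha (80 nM) by GCN2 run at room temperature with 10 μM ATP. After EDTA quench, product quantified by Lanthascreen TR-FRET (antibody–GFP complex, 340 nm excitation).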
Target sequence in this assay (Q9P2K8 whole entry, species assumed): as the sequence (Q9P2K8 whole entry) above

SMILES | IC50 (GCN2 [1]) | IC50 (GSK3α(h)) | IC50 (GCN2 [2])
NC1CC[C@@H](Nc2ncc3nnn(-c4ccc(-c5cnn(CCO)c5)cc4)c3n2)C1 (stereo in doubt) [A257, 2-(4-{4-[5-((1R,3S)-3-amino-cyclopentylamino)-[1,2,3]triazolo[4,5-d]pyrimidin-3-yl]-phenyl}-pyrazol-1-yl)-ethanol] | 5000 to 10000 nM | < 1000 nM | < 1000 nM
COc1ccc(-n2nnc3cnc(NC4CCN(C(=O)CCN(C)C)CC4)nc32)cc1 [A49, 3-dimethylamino-1-{4-[3-(4-methoxy-phenyl)-3H-[1,2,3]triazolo[4,5-d]pyrimidin-5-ylamino]-piperidin-1-yl}-propan-1-one] | 5000 to 10000 nM | – | < 1000 nM
N[C@H]1CC[C@H](Nc2ncc3nnn(-c4ccc(N5CC[C@@H](O)C5)cc4)c3n2)CC1 [A70, (R)-1-{4-[5-((trans)-4-amino-cyclohexylamino)-[1,2,3]triazolo[4,5-d]pyrimidin-3-yl]-phenyl}-pyrrolidin-3-ol] | 5000 to 10000 nM | – | < 1000 nM
Cn1cc(-c2ccc(-n3nnc4cnc(N[C@@H]5CCNC5)nc43)cc2)cn1 [A116, {3-[4-(1-methyl-1H-pyrazol-4-yl)-phenyl]-3H-[1,2,3]triazolo[4,5-d]pyrimidin-5-yl}-(R)-pyrrolidin-3-yl-amine] | 5000 to 10000 nM | – | < 1000 nM
N[C@H]1CC[C@H](Nc2ncc3nnn(-c4ccc(N5CC[C@H](O)C5)cc4)c3n2)CC1 [A128, (S)-1-{4-[5-(4-amino-cyclohexylamino)-[1,2,3]triazolo[4,5-d]pyrimidin-3-yl]-phenyl}-pyrrolidin-3-ol] | 5000 to 10000 nM | – | < 1000 nM
Cn1cc2ccc(-n3nnc4cnc(N[C@@H]5CC[C@@H](C(N)=O)C5)nc43)cc2n1 [A185, (1R,3R)-3-[3-(2-methyl-2H-indazol-6-yl)-3H-[1,2,3]triazolo[4,5-d]pyrimidin-5-ylamino]-cyclopentanecarboxylic acid amide] | 5000 to 10000 nM | – | < 1000 nM
O=c1cccnn1CCn1cc(-c2ccc(-n3nnc4cnc(N[C@@H]5CC[C@@H](O)C5)nc43)cc2)cn1 [A236, 2-[2-(4-{4-[5-((1R,3R)-3-hydroxy-cyclopentylamino)-[1,2,3]triazolo[4,5-d]-pyrimidin-3-yl]-phenyl}-pyrazol-1-yl)-ethyl]-2H-pyridazin-3-one] | 5000 to 10000 nM | – | < 1000 nM
CCOc1ccc(-n2nnc3cnc(N[C@@H]4CC[C@@H](C(=O)N(C)CC(C)(C)O)C4)nc32)cc1 [A251, (1R,3R)-3-[3-(4-ethoxy-phenyl)-3H-[1,2,3]triazolo[4,5-d]pyrimidin-5-ylamino]-cyclopentanecarboxylic acid (2-hydroxy-2-methyl-propyl)-methyl-amide] | 5000 to 10000 nM | – | < 1000 nM
N[C@H]1CC[C@H](Nc2ncc3nnn(-c4ccc(-c5cnn(CCO)c5)cc4)c3n2)CC1 [A256, 2-(4-{4-[5-(trans-4-amino-cyclohexylamino)-[1,2,3]triazolo[4,5-d]pyrimidin-3-yl]-phenyl}-pyrazol-1-yl)-ethanol] | 5000 to 10000 nM | – | < 1000 nM
NC(=O)[C@@H]1CC[C@@H](Nc2ncc3nnn(-c4ccc(O)cc4)c3n2)C1 [A276, (1R,3R)-3-[3-(4-hydroxy-phenyl)-3H-[1,2,3]triazolo[4,5-d]pyrimidin-5-ylamino]-cyclopentanecarboxylic acid amide] | 5000 to 10000 nM | – | < 1000 nM
Cn1cc(CNc2ncc3nnn(-c4ccc5ncccc5c4)c3n2)cn1 [B1, (1-methyl-1H-pyrazol-4-ylmethyl)-(3-quinolin-6-yl-3H-[1,2,3]triazolo[4,5-d]pyrimidin-5-yl)-amine] | 5000 to 10000 nM | – | < 1000 nM

More lines, now with the values ahead:

IC50 (GCN2 [1]) | IC50 (GSK3α(h)) | IC50 (GCN2 [2]) | SMILES
1000 to 5000 nM | < 1000 nM | < 1000 nM | Cc1ccc2cc(-n3nnc4cnc(N[C@@H]5CC[C@@H](O)C5)nc43)ccc2n1 (relative stereo) [A202, (trans)-3-[3-(2-methyl-quinolin-6-yl)-3H-[1,2,3]triazolo[4,5-d]pyrimidin-5-ylamino]-cyclopentanol]
1000 to 5000 nM | < 1000 nM | < 1000 nM | N#CCCn1cc(-c2ccc(-n3nnc4cnc(N[C@@H]5CC[C@@H](O)C5)nc43)cc2)cn1 (relative stereo) [A214, 3-(4-{4-[5-(trans-3-hydroxy-cyclopentylamino)-[1,2,3]triazolo[4,5-d]pyrimidin-3-yl]-phenyl}-pyrazol-1-yl)-propionitrile]
1000 to 5000 nM | – | < 1000 nM | COCCn1cc(-c2ccc(-n3nnc4cnc(N[C@H]5CC[C@H](N)CC5)nc43)cc2)cn1 [A52, N-(3-{4-[1-(2-methoxy-ethyl)-1H-pyrazol-4-yl]-phenyl}-3H-[1,2,3]triazolo[4,5-d]-pyrimidin-5-yl)-cyclohexane-1,4-diamine]
1000 to 5000 nM | – | < 1000 nM | N[C@H]1CC[C@H](Nc2ncc3nnn(-c4ccc(N5CCOCC5)cc4)c3n2)CC1 [A64, N-[3-(4-morpholin-4-yl-phenyl)-3H-[1,2,3]triazolo[4,5-d]pyrimidin-5-yl]-cyclohexane-1,4-diamine]
1000 to 5000 nM | < 1000 nM | < 1000 nM | COc1ccc(-n2nnc3cnc(N[C@@H]4CC[C@H](CO)C4)nc32)cc1 [A112, {(1S,3R)-3-[3-(4-methoxy-phenyl)-3H-[1,2,3]triazolo[4,5-d]pyrimidin-5-ylamino]-cyclopentyl}-methanol]
1000 to 5000 nM | < 1000 nM | < 1000 nM | COc1ccc(-n2nnc3cnc(N[C@@H]4CC[C@@H](CO)C4)nc32)cc1 [A114, {(1R,3R)-3-[3-(4-methoxy-phenyl)-3H-[1,2,3]triazolo[4,5-d]pyrimidin-5-ylamino]-cyclopentyl}-methanol]
1000 to 5000 nM | – | < 1000 nM | COCC(COC)Oc1ccc(-n2nnc3cnc(N[C@@H]4CC[C@@H](C(N)=O)C4)nc32)cc1 [A167, (1R,3R)-3-{3-[4-(2-methoxy-1-methoxymethyl-ethoxy)-phenyl]-3H-[1,2,3]triazolo[4,5-d]pyrimidin-5-ylamino}-cyclopentanecarboxylic acid amide]
1000 to 5000 nM | – | < 1000 nM | NC(=O)[C@@H]1CC[C@@H](Nc2ncc3nnn(-c4ccc(OC5CCOCC5)cc4)c3n2)C1 [A168, (1R,3R)-3-{3-[4-(tetrahydro-pyran-4-yloxy)-phenyl]-3H-[1,2,3]triazolo[4,5-d]-pyrimidin-5-ylamino}-cyclopentanecarboxylic acid amide]
1000 to 5000 nM | – | < 1000 nM | NC(=O)[C@@H]1CC[C@@H](Nc2ncc3nnn(-c4ccc(I)cc4)c3n2)C1 [A170, (1R,3R)-3-[3-(4-iodo-phenyl)-3H-[1,2,3]triazolo[4,5-d]pyrimidin-5-ylamino]-cyclopentanecarboxylic acid amide]
1000 to 5000 nM | – | < 1000 nM | Cn1cc2cc(-n3nnc4cnc(N[C@@H]5CC[C@@H](C(N)=O)C5)nc43)ccc2n1 [A186, (1R,3R)-3-[3-(2-methyl-2H-indazol-5-yl)-3H-[1,2,3]triazolo[4,5-d]pyrimidin-5-ylamino]-cyclopentanecarboxylic acid amide]
1000 to 5000 nM | – | < 1000 nM | Cc1ccc2cc(-n3nnc4cnc(N[C@@H]5CC[C@H](C(N)=O)C5)nc43)ccc2n1 [A191, (1S,3R)-3-[3-(2-methyl-quinolin-6-yl)-3H-[1,2,3]triazolo[4,5-d]pyrimidin-5-ylamino]-cyclopentanecarboxylic acid amide]
1000 to 5000 nM | – | < 1000 nM | Cc1ccc2cc(-n3nnc4cnc(N[C@@H]5CC[C@@H](O)C5)nc43)ccc2n1 [A208, (1R,3R)-3-[3-(2-methyl-quinolin-6-yl)-3H-[1,2,3]triazolo[4,5-d]pyrimidin-5-ylamino]-cyclopentanol]
1000 to 5000 nM | – | < 1000 nM | COc1ccc(-n2nnc3cnc(N[C@@H]4CC[C@@H](C(=O)N(C)C)C4)nc32)cc1 [A243, (1R,3R)-3-[3-(4-methoxy-phenyl)-3H-[1,2,3]triazolo[4,5-d]pyrimidin-5-ylamino]-cyclo pentanecarboxylic acid dimethylamide]
< 1000 nM | – | < 1000 nM | Cc1ccc2cc(-n3nnc4cnc(N[C@@H]5CC[C@@H](C(=O)NCCC(C)(C)O)C5)nc43)ccc2n1 [A253, (1R,3R)-3-[3-(2-methyl-quinolin-6-yl)-3H-[1,2,3]triazolo[4,5-d]pyrimidin-5-ylamino]-cyclopentanecarboxylic acid (3-hydroxy-3-methyl-butyl)-amide]
1000 to 5000 nM | – | < 1000 nM | COC(=O)CCOc1ccc(-n2nnc3cnc(N[C@@H]4CC[C@@H](C(N)=O)C4)nc32)cc1 [A292, 3-{4-[5-((1R,3R)-3-carbamoyl-cyclopentylamino)-[1,2,3]triazolo[4,5-d]pyrimidin-3-yl]-phenoxy}-propionic acid methyl ester]
